In PubChem BioAssay AID1117359 (Southern Research Institute, 2015) one finds CC50 data, which are given here for eight compounds.

What is called CC50 is the concentration giving 50% cytotoxicity.

The subject of the assay is THP-1 viability, CellTiter-Glo luminescence, 72 h. Description: THP-1 cell cytotoxicity, dose response, cytotoxicity control for Vif-APOBEC3G degradation inhibitor project, THP-1 cells (AID 1117359).
Regarding `CCOC(=O)C(C(=O)OCC)c1cc(Br)c2noc3c2c1C(=O)c1ccccc1-3`, the CC50 is 9.78 µM.

Consider `CSc1nc(N(CCO)CCO)c2sc3nc(-c4ccco4)c4c(c3c2n1)CCC4`, for which the CC50 is 19.8 µM.

With `COC(C(=O)C(O)C(C)O)C1Cc2cc3cc(OC4CC(OC5CC(O)C(O)C(C)O5)C(O)C(C)O4)c(C)c(O)c3c(O)c2C(=O)C1OC1CC(OC2CC(OC3CC(O)C(OC)C(C)O3)C(O)C(C)O2)C(O)C(C)O1` (stereo not drawn), the CC50 is under 0.08 µM.

Consider `CCN=c1scc(C)n1/N=C/c1ccc(O)c(O)c1O`, for which the CC50 was 19.9 µM.

Turning to `Oc1ccc(N=Cc2ccc(O)c(O)c2)cc1`, the CC50 is 13 µM.

`CCOc1cc(CNc2ccc(O)cc2)ccc1OCc1ccc(Cl)cc1Cl`: the CC50 was 8.81 µM.

`Oc1ccc(/C=N/NP(=S)(c2ccccc2)c2ccccc2)c(O)c1O`: the CC50 is 38.3 µM.

In the case of `O=[N+]([O-])c1c(NCCO)cc(Sc2nc3ccccc3s2)c2nonc12`, the CC50 was 17.9 µM.
